In ChEMBL document CHEMBL1201862, “PubChem BioAssay data set” (2004):
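Values below derive from 48-hour exposures of cells grown in 96-well plates, with endpoints linearly interpolated between the two concentrations bracketing the appropriate inhibition level. The concentration for 50% growth inhibition is given as GI50.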 The source made the active and inactive calls. Rule as the data show it: active = GI50 up to about 1.1 µM and inactive = higher.

Columns and labels:
Test in all cases: NCI tumour cell line growth inhibition, 48 h
[1] = system: MOLT-4
[2] = system: HOP-92
[3] = system: NCI-H23
[4] = system: IGROV-1
[5] = system: UACC-62
[6] = system: M14
[7] = system: A549
[8] = system: OVCAR-8
[9] = system: RPMI-8226
[10] = system: OVCAR-4
[11] = system: HL-60
[12] = system: ACHN
[13] = system: UO-31
[14] = system: MDA-MB-435
[15] = system: SK-OV-3
[16] = system: BT-549
[17] = system: CAKI-1
[18] = system: PC-3
[19] = system: SNB-75

Row | SMILES | GI50 [1] | GI50 [2] | GI50 [3] | GI50 [4] | GI50 [5] | GI50 [6] | GI50 [7] | GI50 [8] | GI50 [9] | GI50 [10] | GI50 [11] | GI50 [12] | GI50 [13] | GI50 [14] | GI50 [15] | GI50 [16] | GI50 [17] | GI50 [18] | GI50 [19]
1 | C/C=C/COc1cc(NC(=S)OC(C)C)ccc1Cl.C/C=C\COc1cc(NC(=S)OC(C)C)ccc1Cl | 14.8 µM (inactive) | 11.8 µM (inactive) | 16.9 µM (inactive) | 19.6 µM (inactive) | 15.8 µM (inactive) | 24.2 µM (inactive) | 15.6 µM (inactive) | 18.7 µM (inactive) | 70.1 µM (inactive) | 16.8 µM (inactive) | 19.3 µM (inactive) | 17.7 µM (inactive) | 12 µM (inactive) | 21.2 µM (inactive) | 21.9 µM (inactive) | 19.6 µM (inactive) | 4.06 µM (inactive) | 16.3 µM (inactive) | –
2 | COc1ccc(C2C3=C(COC3=O)Oc3cc4c(cc32)OCO4)c(OC)c1 (configuration not stated) | 4.28 µM (inactive) | – | 19 µM (inactive) | 12.9 µM (inactive) | 6.79 µM (inactive) | 15 µM (inactive) | 10.9 µM (inactive) | 44.4 µM (inactive) | 7.74 µM (inactive) | 8.11 µM (inactive) | 4.34 µM (inactive) | 19.9 µM (inactive) | 16.3 µM (inactive) | 2.28 µM (inactive) | 17.3 µM (inactive) | 22.9 µM (inactive) | 18.6 µM (inactive) | 6.75 µM (inactive) | 10.9 µM (inactive)
3 | O=C(NNC(=O)c1ccccc1O)c1cccc(Br)c1 | 9.23 µM (inactive) | – | > 100 µM (inactive) | 18.3 µM (inactive) | 47.3 µM (inactive) | 26.9 µM (inactive) | 25.5 µM (inactive) | 20.9 µM (inactive) | 15.2 µM (inactive) | 45.5 µM (inactive) | 5.82 µM (inactive) | 7 µM (inactive) | 10.7 µM (inactive) | 37.9 µM (inactive) | 54.1 µM (inactive) | > 100 µM (inactive) | 24.3 µM (inactive) | 44.8 µM (inactive) | > 71.8 µM (inactive)
4 | O/N=C/C1c2ccccc2-c2ccccc21 | 24 µM (inactive) | 12.8 µM (inactive) | 17.9 µM (inactive) | – | 15 µM (inactive) | 16.9 µM (inactive) | 19.2 µM (inactive) | 19.6 µM (inactive) | 21.5 µM (inactive) | – | 31.3 µM (inactive) | 16.4 µM (inactive) | 15.1 µM (inactive) | 15.8 µM (inactive) | 14.4 µM (inactive) | 16.9 µM (inactive) | 14 µM (inactive) | 17.2 µM (inactive) | –
5 | COc1cc(COC(=O)N2CC=CC2C(=O)O)c([N+](=O)[O-])cc1OC (configuration not stated) | > 100 µM (inactive) | > 100 µM (inactive) | > 100 µM (inactive) | > 100 µM (inactive) | > 100 µM (inactive) | > 100 µM (inactive) | > 100 µM (inactive) | > 100 µM (inactive) | > 100 µM (inactive) | – | > 100 µM (inactive) | > 100 µM (inactive) | > 100 µM (inactive) | > 100 µM (inactive) | > 100 µM (inactive) | > 100 µM (inactive) | – | > 100 µM (inactive) | > 100 µM (inactive)
6 | N#CC(=S)Nc1ccc(Cl)c(Cl)c1 | 17.3 µM (inactive) | 3.1 µM (inactive) | 31.9 µM (inactive) | 13.1 µM (inactive) | 19 µM (inactive) | 24.6 µM (inactive) | 24 µM (inactive) | 25.4 µM (inactive) | 3.2 µM (inactive) | – | – | 33.3 µM (inactive) | – | 27 µM (inactive) | 20 µM (inactive) | 27 µM (inactive) | 29.8 µM (inactive) | 23.9 µM (inactive) | 21.7 µM (inactive)
7 | CSc1nc(Br)nc2c1ncn2C1CC(Oc2ccc(C)cc2)C(COc2ccc(C)cc2)O1 (configuration not stated) | > 100 µM (inactive) | > 100 µM (inactive) | 40.8 µM (inactive) | > 100 µM (inactive) | > 100 µM (inactive) | > 100 µM (inactive) | > 100 µM (inactive) | > 100 µM (inactive) | 93.8 µM (inactive) | 83 µM (inactive) | > 100 µM (inactive) | 33.7 µM (inactive) | – | > 100 µM (inactive) | > 100 µM (inactive) | > 100 µM (inactive) | > 100 µM (inactive) | > 100 µM (inactive) | 23.3 µM (inactive)
8 | N#Cc1c(-c2ccccc2)c(C#N)c(=S)n(C2OCC(O)C(O)C2O)c1N (configuration not stated) | > 100 µM (inactive) | – | > 100 µM (inactive) | > 100 µM (inactive) | > 100 µM (inactive) | > 100 µM (inactive) | > 100 µM (inactive) | > 100 µM (inactive) | > 100 µM (inactive) | – | > 100 µM (inactive) | > 100 µM (inactive) | > 100 µM (inactive) | > 100 µM (inactive) | > 100 µM (inactive) | > 100 µM (inactive) | > 100 µM (inactive) | > 100 µM (inactive) | > 100 µM (inactive)
9 | CN(C)c1ccc(C(c2ccc(N(C)C)cc2)c2ccc([N+](=O)[O-])cc2)cc1 | > 100 µM (inactive) | > 100 µM (inactive) | > 100 µM (inactive) | > 100 µM (inactive) | > 100 µM (inactive) | > 100 µM (inactive) | > 100 µM (inactive) | > 100 µM (inactive) | 15.1 µM (inactive) | > 100 µM (inactive) | 23.9 µM (inactive) | > 100 µM (inactive) | > 100 µM (inactive) | > 100 µM (inactive) | > 100 µM (inactive) | > 100 µM (inactive) | > 100 µM (inactive) | > 100 µM (inactive) | –
10 | COC(=O)[C@]1(C)CCCC2(C)C3=C(CCC21)CC1(CC3)SCCS1 (some centres not stated) | > 10 µM (inactive) | > 10 µM (inactive) | > 10 µM (inactive) | > 10 µM (inactive) | > 10 µM (inactive) | > 10 µM (inactive) | > 10 µM (inactive) | > 10 µM (inactive) | > 10 µM (inactive) | > 10 µM (inactive) | > 10 µM (inactive) | > 10 µM (inactive) | – | > 10 µM (inactive) | > 10 µM (inactive) | > 10 µM (inactive) | > 10 µM (inactive) | > 10 µM (inactive) | > 10 µM (inactive)
11 | CCOP(=O)(CCCC(O)CNc1cc(Cl)nc(N)n1)OCC (configuration not stated) | > 100 µM (inactive) | > 100 µM (inactive) | > 100 µM (inactive) | > 100 µM (inactive) | > 100 µM (inactive) | – | > 100 µM (inactive) | > 100 µM (inactive) | > 100 µM (inactive) | > 100 µM (inactive) | > 100 µM (inactive) | > 100 µM (inactive) | > 100 µM (inactive) | > 100 µM (inactive) | > 100 µM (inactive) | > 100 µM (inactive) | > 100 µM (inactive) | > 100 µM (inactive) | > 100 µM (inactive)
12 | O=c1c2ccccc2[nH]c2c(Cl)cc(Cl)c(N3CCCCC3)c12 | 26.4 µM (inactive) | – | 24.1 µM (inactive) | 18.6 µM (inactive) | > 10 µM (inactive) | 27.3 µM (inactive) | 33.2 µM (inactive) | 40 µM (inactive) | 29.9 µM (inactive) | 71.6 µM (inactive) | 37.5 µM (inactive) | 23 µM (inactive) | 20 µM (inactive) | 22.8 µM (inactive) | 62.4 µM (inactive) | 43.5 µM (inactive) | 30.5 µM (inactive) | 35.5 µM (inactive) | 30.1 µM (inactive)
13 | COC1OC(C)C(NC(=O)OCC(Cl)(Cl)Cl)C2OC(C)(C)OC12 (configuration not stated) | > 100 µM (inactive) | > 100 µM (inactive) | > 100 µM (inactive) | > 100 µM (inactive) | > 100 µM (inactive) | > 100 µM (inactive) | > 100 µM (inactive) | > 100 µM (inactive) | > 100 µM (inactive) | > 100 µM (inactive) | > 100 µM (inactive) | > 100 µM (inactive) | > 100 µM (inactive) | > 100 µM (inactive) | > 100 µM (inactive) | > 100 µM (inactive) | > 100 µM (inactive) | > 100 µM (inactive) | –
14 | NS(=O)(=O)c1ccc(Nc2c3ccccc3nc3c(C(=O)NC(CO)(CO)CO)cccc23)cc1 | 0.0468 µM (active) | 0.153 µM (active) | 0.15 µM (active) | 0.136 µM (active) | 0.138 µM (active) | 0.186 µM (active) | 0.123 µM (active) | 0.181 µM (active) | 0.217 µM (active) | 0.0598 µM (active) | 0.21 µM (active) | 0.19 µM (active) | 0.171 µM (active) | 0.212 µM (active) | 0.188 µM (active) | 0.126 µM (active) | 0.218 µM (active) | 0.226 µM (active) | –
15 | N=C(N)c1ccc(/N=N\c2c(O)ccc3cc4c(/N=N\c5ccc(C(=N)N)cc5)c(O)ccc4cc23)cc1 | 37.8 µM (inactive) | > 100 µM (inactive) | – | 51.5 µM (inactive) | > 100 µM (inactive) | > 100 µM (inactive) | > 100 µM (inactive) | 80.4 µM (inactive) | 28 µM (inactive) | > 100 µM (inactive) | 25.2 µM (inactive) | > 100 µM (inactive) | 53.1 µM (inactive) | > 100 µM (inactive) | > 100 µM (inactive) | > 100 µM (inactive) | > 100 µM (inactive) | > 100 µM (inactive) | > 100 µM (inactive)
16 | c1ccc2c(c1)CC1COc3ccccc3C1O2 (configuration not stated) | 30.3 µM (inactive) | 47 µM (inactive) | 67.1 µM (inactive) | 86.1 µM (inactive) | > 100 µM (inactive) | > 100 µM (inactive) | 50.1 µM (inactive) | > 100 µM (inactive) | 27.5 µM (inactive) | – | > 100 µM (inactive) | 75.9 µM (inactive) | 51.1 µM (inactive) | 47.4 µM (inactive) | > 100 µM (inactive) | 70.3 µM (inactive) | 71.3 µM (inactive) | 70.6 µM (inactive) | > 100 µM (inactive)
